Test results taken from ChEMBL document CHEMBL5376003, “Structure-Activity Relationship of FL118 Platform Position 7 Versus Position 9-Derived Compounds and Their Mechanism of Action and Antitumor Activity” (J Med Chem, 2023).
pIC50: −log10 of the molar value. Activity calls are given as the source filed them. The calls are words filed in the database; no cut-off is given here.

What was measured:
[1] = tested on: HCT-116; assay: Induction of apoptosis in human HCT-116 cells assessed as increase in intracellular ROS level at 10 to 1000 nM incubated for 12 hrs by DCFH-DA staining based fluorescence microscopy; format: functional, cell-based; conditions: dose 10-1000 nM
[2] = tested on: HepG2; assay: Growth inhibition of human HepG2 cells incubated for 48 hrs by MTT reagent based ELISA reader analysis; format: functional, cell-based; conditions: HepG2, 48 h
[3] = tested on: A549; assay: Growth inhibition of human A549 cells incubated for 48 hrs by MTT reagent based ELISA reader analysis; format: functional, cell-based; conditions: A549, 48 h
[4] = tested on: PDX27454; assay: Antitumor activity against human PDX27454 cells xenografted in SCID mouse model assessed as reduction in tumor volume at 8 mg/kg,po administrated once per week for 3 weeks; format: functional, organism-based
[5] = target: T1, DNA topoisomerase 1 (Homo sapiens) (UniProt P11387); assay: Inhibition of topoisomerase 1 (unknown origin) assessed as relaxation of supercoiled plasmid pBR322 DNA at 25 to 100 uM incubated for 30 mins by ethidium bromide staining based agarose gel electrophoresis; conditions: dose 25-100 µM
T1 sequence (whole entry): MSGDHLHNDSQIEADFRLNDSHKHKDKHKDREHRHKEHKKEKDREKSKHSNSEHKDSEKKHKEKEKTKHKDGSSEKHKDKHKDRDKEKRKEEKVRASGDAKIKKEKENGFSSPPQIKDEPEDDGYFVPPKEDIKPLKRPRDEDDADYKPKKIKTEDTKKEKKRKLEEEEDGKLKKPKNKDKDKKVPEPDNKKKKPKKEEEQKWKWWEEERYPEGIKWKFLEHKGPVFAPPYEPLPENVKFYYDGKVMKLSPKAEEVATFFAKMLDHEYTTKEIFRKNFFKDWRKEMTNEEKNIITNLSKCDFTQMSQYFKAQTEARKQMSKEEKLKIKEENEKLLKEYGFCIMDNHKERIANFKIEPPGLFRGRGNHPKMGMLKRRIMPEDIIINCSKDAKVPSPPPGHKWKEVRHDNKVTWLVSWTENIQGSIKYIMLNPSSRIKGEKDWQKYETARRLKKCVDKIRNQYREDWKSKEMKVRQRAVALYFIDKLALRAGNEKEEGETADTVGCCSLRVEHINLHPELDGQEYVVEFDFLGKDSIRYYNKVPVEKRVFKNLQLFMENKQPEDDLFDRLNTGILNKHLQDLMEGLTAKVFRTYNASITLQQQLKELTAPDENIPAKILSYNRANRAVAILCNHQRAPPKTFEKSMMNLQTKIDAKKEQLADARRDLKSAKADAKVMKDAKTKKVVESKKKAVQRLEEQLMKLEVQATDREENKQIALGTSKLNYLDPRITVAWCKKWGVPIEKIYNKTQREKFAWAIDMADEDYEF

[6] = tested on: HCT-116; assay: Induction of apoptosis in human HCT-116 cells assessed as upregulation of DDX5 mRNA expression at 50 nM incubated for 24 hrs by RNA analysis; format: functional, cell-based
[7] = tested on: HCT-116; assay: Induction of apoptosis in human HCT-116 cells assessed as modulation of TOP2A mRNA expression at 10 to 500 nM incubated for 6 to 48 hrs by RNA analysis; format: functional, cell-based; conditions: dose 10-500 nM, time 6-48 hrs
[8] = tested on: HCT-116; assay: Induction of apoptosis in human HCT-116 cells assessed as modulation of TOP2B mRNA expression at 10 to 500 nM incubated for 6 to 48 hrs by RNA analysis; format: functional, cell-based; conditions: dose 10-500 nM, time 6-48 hrs
[9] = tested on: HCT-116; assay: Induction of apoptosis in human HCT-116 cells assessed as modulation of DDX6 mRNA expression at 10 to 500 nM incubated for 6 to 48 hrs by RNA analysis; format: functional, cell-based; conditions: dose 10-500 nM, time 6-48 hrs
[10] = tested on: HCT-116; assay: Induction of apoptosis in human HCT-116 cells assessed as modulation of DDX42 mRNA expression at 10 to 500 nM incubated for 6 to 48 hrs by RNA analysis; format: functional, cell-based; conditions: dose 10-500 nM, time 6-48 hrs
[11] = tested on: HCT-116; assay: Induction of apoptosis in human HCT-116 cells assessed as modulation of DDX55 mRNA expression at 10 to 500 nM incubated for 6 to 48 hrs by RNA analysis; format: functional, cell-based; conditions: dose 10-500 nM, time 6-48 hrs
[12] = tested on: HCT-116; assay: Induction of apoptosis in human HCT-116 cells assessed as upregulation of BIK mRNA expression at 10 to 500 nM incubated for 6 to 48 hrs by RNA analysis; format: functional, cell-based; conditions: dose 10-500 nM, time 6-48 hrs
[13] = tested on: HCT-116; assay: Induction of apoptosis in human HCT-116 cells assessed as upregulation of ADA mRNA expression at 10 to 500 nM incubated for 6 to 48 hrs by RNA analysis; format: functional, cell-based; conditions: dose 10-500 nM, time 6-48 hrs
[14] = tested on: HCT-116; assay: Activation of innate immune response in human HCT-116 cells assessed as upregulation of IFIH1 gene expression at 10 to 500 nM incubated for 6 to 48 hrs by RNA analysis; format: functional, cell-based; conditions: dose 10-500 nM, time 6-48 hrs
[15] = tested on: HCT-116; assay: Activation of innate immune response in human HCT-116 cells assessed as upregulation of IRF5 gene expression at 10 to 500 nM incubated for 6 to 48 hrs by RNA analysis; format: functional, cell-based; conditions: dose 10-500 nM, time 6-48 hrs
[16] = tested on: HCT-116; assay: Induction of apoptosis in human HCT-116 cells assessed as downregulation of HK2 gene expression at 10 to 500 nM incubated for 6 to 48 hrs by RNA analysis; format: functional, cell-based; conditions: dose 10-500 nM, time 6-48 hrs
[17] = tested on: HCT-116; assay: Induction of apoptosis in human HCT-116 cells assessed as downregulation of RANBP2 gene expression at 10 to 500 nM incubated for 6 to 48 hrs by RNA analysis; format: functional, cell-based; conditions: dose 10-500 nM, time 6-48 hrs
[18] = tested on: HCT-116; assay: Induction of apoptosis in human HCT-116 cells assessed as downregulation of AAAS gene expression at 10 to 500 nM incubated for 6 to 48 hrs by RNA analysis; format: functional, cell-based; conditions: dose 10-500 nM, time 6-48 hrs
[19] = tested on: HCT-116; assay: Induction of apoptosis in human HCT-116 cells assessed as downregulation of NUP155 gene expression at 10 to 500 nM incubated for 6 to 48 hrs by RNA analysis; format: functional, cell-based; conditions: dose 10-500 nM, time 6-48 hrs
[20] = tested on: HCT-116; assay: Induction of apoptosis in human HCT-116 cells assessed as downregulation of NUP210 gene expression at 10 to 500 nM incubated for 6 to 48 hrs by RNA analysis; format: functional, cell-based; conditions: dose 10-500 nM, time 6-48 hrs
[21] = tested on: HCT-116; assay: Induction of apoptosis in human HCT-116 cells assessed as downregulation of NUP62 gene expression at 10 to 500 nM incubated for 6 to 48 hrs by RNA analysis; format: functional, cell-based; conditions: dose 10-500 nM, time 6-48 hrs
[22] = tested on: HCT-116; assay: Induction of apoptosis in human HCT-116 cells assessed as downregulation of TPI1 gene expression at 10 to 500 nM incubated for 6 to 48 hrs by RNA analysis; format: functional, cell-based; conditions: dose 10-500 nM, time 6-48 hrs
[23] = tested on: HCT-116; assay: Induction of apoptosis in human HCT-116 cells assessed as downregulation of CTPS1 gene expression at 10 to 500 nM incubated for 6 to 48 hrs by RNA analysis; format: functional, cell-based; conditions: dose 10-500 nM, time 6-48 hrs
[24] = tested on: HCT-116; assay: Induction of apoptosis in human HCT-116 cells assessed as downregulation of AK2 gene expression at 10 to 500 nM incubated for 6 to 48 hrs by RNA analysis; format: functional, cell-based; conditions: dose 10-500 nM, time 6-48 hrs
[25] = tested on: HCT-116; assay: Induction of apoptosis in human HCT-116 cells assessed as downregulation of DPYD gene expression at 10 to 500 nM incubated for 6 to 48 hrs by RNA analysis; format: functional, cell-based; conditions: dose 10-500 nM, time 6-48 hrs
[26] = tested on: HCT-116; assay: Induction of apoptosis in human HCT-116 cells assessed as downregulation of GART gene expression at 10 to 500 nM incubated for 6 to 48 hrs by RNA analysis; format: functional, cell-based; conditions: dose 10-500 nM, time 6-48 hrs

Row | Compound | Activity [1] | pIC50 [2] | pIC50 [3] | Activity [6] | Activity [7] | Activity [8] | Activity [9] | Activity [10] | Activity [11] | Activity [12] | Activity [14] | Activity [15] | Activity [16] | Activity [17] | Activity [18] | Activity [19] | Activity [20] | Activity [21] | Activity [22] | Activity [23] | other results
1 | CC[C@@]1(O)C(=O)OCc2c1cc1n(c2=O)Cc2c-1nc1cc3c(cc1c2-c1ccc(OC)cc1)OCO3 | Active | 7.19 | 7.36 | inactive | Active | Active | Active | Active | Active | Active | Active | Active | Active | Active | Active | Active | Active | Active | Active | Active | Activity [4]: Active; Topoisomerase 1 inhibition [5]: Active; Activity [13]: Active; Activity [24]: Active; Activity [25]: Active; Activity [26]: Active
2 | CC[C@@]1(O)C(=O)OCc2c1cc1n(c2=O)Cc2cc3cc4c(cc3nc2-1)OCO4 | Active | 7.40 | 7.29 | inactive | Active | Active | Active | Active | Active | Active | Active | Active | Active | Active | Active | Active | Active | Active | Active | Active | Activity [13]: Active; Activity [24]: Active; Activity [25]: Active; Activity [26]: Active
3 | CCc1ccc(-c2c3c(nc4cc5c(cc24)OCO5)-c2cc4c(c(=O)n2C3)COC(=O)[C@]4(O)CC)cc1 | Active | 6.80 | 7.24 | inactive | Active | Active | Active | Active | Active | Active | Active | Active | Active | Active | Active | Active | Active | Active | Active | Active | Activity [4]: Active; Topoisomerase 1 inhibition [5]: Active; Activity [13]: Active; Activity [24]: Active; Activity [25]: Active; Activity [26]: Active
4 | CC[C@@]1(O)C(=O)OCc2c1cc1n(c2=O)Cc2c-1nc1cc3c(cc1c2-c1cc(OC)cc(OC)c1)OCO3 | Active | 6.93 | 7.55 | inactive | Active | Active | Active | Active | Active | Active | Active | Active | Active | Active | Active | Active | Active | Active | Active | Active | Activity [4]: Active; Topoisomerase 1 inhibition [5]: Active; Activity [24]: Active; Activity [26]: Active
